Data as given in patent publication US20250346585A1 (Alexion Pharmaceuticals, Inc., priority 2022, published 2025).
pIC50: −log10 of the molar value. Where two headings read alike, the source gives them in different places.

Target: Human complement C1s enzyme (Homo sapiens (Human), UniProt P09871)
Assay: Human C1s enzyme assay
Format: biochemical
Conditions: read-out: IC50 (Stars)
Procedure, shortened: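 IC50 derived by nonlinear regression of rate versus concentration, with rate taken from A405 kinetics (30 s intervals, 30 min) after adding 100 μM each Z-L-Lys-SBzl and DTNB. C1s from human serum, 1.16 nM, exposed to compound for 5 min at RT beforehand; buffer 50 mM Tris, 1 M NaCl, pH 7.5.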

[1] = Human C1s enzyme assay of Example 3
[2] = Human complement C1s enzyme 1.16 nM, substrate Z-L-Lys-SBzl 100 μM, assay of Example 3

Human complement C1s enzyme, sequence (P09871 438-688 limits assumed): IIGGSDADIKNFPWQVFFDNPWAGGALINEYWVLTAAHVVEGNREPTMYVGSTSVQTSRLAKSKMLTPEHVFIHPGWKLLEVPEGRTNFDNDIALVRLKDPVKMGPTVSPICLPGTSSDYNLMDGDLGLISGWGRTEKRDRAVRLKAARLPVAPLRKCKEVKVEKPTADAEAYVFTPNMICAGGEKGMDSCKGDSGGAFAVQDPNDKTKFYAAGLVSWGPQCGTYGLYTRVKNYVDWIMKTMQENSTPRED
Human complement C1s enzyme, sequence (P09871 16-437 partner limits assumed): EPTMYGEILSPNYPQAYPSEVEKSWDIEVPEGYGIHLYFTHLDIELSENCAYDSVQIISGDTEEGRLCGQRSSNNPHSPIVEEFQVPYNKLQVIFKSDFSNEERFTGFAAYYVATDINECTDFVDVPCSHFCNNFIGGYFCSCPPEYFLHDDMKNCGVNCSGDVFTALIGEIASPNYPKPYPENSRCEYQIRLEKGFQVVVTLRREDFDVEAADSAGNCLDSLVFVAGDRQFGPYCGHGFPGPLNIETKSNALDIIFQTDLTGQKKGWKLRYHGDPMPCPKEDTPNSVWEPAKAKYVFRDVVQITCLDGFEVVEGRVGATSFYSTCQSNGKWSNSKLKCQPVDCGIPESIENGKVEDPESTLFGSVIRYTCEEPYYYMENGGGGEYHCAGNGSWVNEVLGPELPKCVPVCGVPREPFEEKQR

pIC50 [1] | pIC50 [2] | Structure (SMILES) | also measured
> 7.00 |  | C[C@@]12C[C@@H]1N(C(=O)CNC(=O)c1ccc3c(c1)CCCO3)[C@H](C(=O)NCc1cc(C(=N)N)cs1)C2 [Compound 1, (1S,3S,5S)—N-((4-carbamimidoylthiophen-2-yl)methyl)-2-((chromane-6-carbonyl)glycyl)-5-methyl-2-azabicyclo[3.1.0]hexane-3-carboxamide] | 
 | > 7.00 | C[C@@H](NC(=O)[C@@H]1C[C@@H](OC(F)F)CN1C(=O)CNC(=O)c1ccc2c(c1)C(F)(F)c1ccccc1-2)c1cc(C(=N)N)cs1 [Compound 262, (2S,4R)—N—((R)-1-(4-carbamimidoylthiophen-2-yl)ethyl)-1-((9,9-difluoro-9H-fluorene-2-carbonyl)glycyl)-4-(difluoromethoxy)pyrrolidine-2-carboxamide] | 
 | > 7.00 | COc1cccc(F)c1-c1ccc(C(=O)NCC(=O)N2CC3(C[C@H]2C(=O)NCc2cc(C(=N)N)cs2)OCCO3)cc1 [Compound 241, (S)—N-((4-carbamimidoylthiophen-2-yl)methyl)-7-((2′-fluoro-6′-methoxy-[1,1′-biphenyl]-4-carbonyl)glycyl)-1,4-dioxa-7-azaspiro[4.4]nonane-8-carboxamide] | 
 |  | N=C(N)c1c[nH]c(CNC(=O)[C@@H]2CC3(CN2C(=O)CNC(=O)c2ccc4c(c2)-c2ccccc2C4(F)F)OCCO3)c1 [Compound 423, (S)-N-((4-carbamimidoyl-1H-pyrrol-2-yl)methyl)-7-((9,9-difluoro-9H-fluorene-3-carbonyl)glycyl)-1,4-dioxa-7-azaspiro[4.4]nonane-8-carboxamide] | pIC50 (Human complement C1s enzyme 1.16 nM, substrate Z-L-Lys-SBzl, assay of Example 3): > 7.00
 | > 7.00 | COC[C@@]1(F)C[C@@H](C(=O)N[C@H](C)c2cc(C(=N)N)cs2)N(C(=O)CNC(=O)c2ccc3c(c2)C(F)(F)c2ccccc2-3)C1 [Compound 264, (2S,4R)—N—((R)-1-(4-carbamimidoylthiophen-2-yl)ethyl)-1-((9,9-difluoro-9H-fluorene-2-carbonyl)glycyl)-4-fluoro-4-(methoxymethyl)pyrrolidine-2-carboxamide] | 
< 6.00 |  | C[C@@H](NC(=O)[C@@H]1CC2(CN1C(=O)CNC(=O)c1ccc3c(c1)-c1ccccc1C3(F)F)OCCO2)c1ccc(-c2ncc[nH]2)s1 [Compound 135, (S)—N—((R)-1-(5-(1H-imidazol-2-yl)thiophen-2-yl)ethyl)-7-((9,9-difluoro-9H-fluorene-3-carbonyl)glycyl)-1,4-dioxa-7-azaspiro[4.4]nonane-8-carboxamide] | 
> 7.00 |  | C[C@@H](NC(=O)[C@@H]1C[C@]2(C)C[C@@H]2N1C(=O)CNC(=O)c1ccc(Oc2ccc(F)cc2)cc1)c1cc(C(=N)N)cs1 [Compound 16, (1S,3S,5S)—N-[(1R)-1-(4-carbamimidoylthiophen-2-yl)ethyl]-2-(2-{[4-(4-fluorophenoxy)phenyl]formamido}acetyl)-5-methyl-2-azabicyclo[3.1.0]hexane-3-carboxamide] | 
 | > 7.00 | N=C(N)c1csc(CNC(=O)[C@@H]2CC3(CN2C(=O)CN2Cc4ccc(-c5ccc(F)cc5F)cc4C2)OCCO3)c1 [Compound 287, (S)—N-((4-carbamimidoylthiophen-2-yl)methyl)-7-(2-(5-(2,4-difluorophenyl)isoindolin-2-yl)acetyl)-1,4-dioxa-7-azaspiro[4.4]nonane-8-carboxamide] | 
 | > 7.00 | C[C@@H](NC(=O)[C@@H]1C[C@@H](S(C)(=O)=O)CN1C(=O)CNC(=O)c1ccc2oc3ccccc3c2c1)c1cc(C(=N)N)cs1 [Compound 220, (2S,4R)—N—((R)-1-(4-carbamimidoylthiophen-2-yl)ethyl)-1-((dibenzo[b,d]furan-2-carbonyl)glycyl)-4-(methylsulfonyl)pyrrolidine-2-carboxamide] | 
> 7.00 |  | C[C@@H](NC(=O)[C@@H]1C[C@@H](S(C)(=O)=O)CN1C(=O)CNC(=O)c1ccc2c(c1)-c1ccccc1C2(C)C)c1cc(C(=N)N)cs1 [Compound 178, (2S,4R)—N—((R)-1-(4-carbamimidoylthiophen-2-yl)ethyl)-1-((9,9-dimethyl-9H-fluorene-3-carbonyl)glycyl)-4-(methylsulfonyl)pyrrolidine-2-carboxamide] | 
> 7.00 |  | CC1c2ccccc2-c2cc(C(=O)NCC(=O)N3CC4(C[C@H]3C(=O)NCc3cc(C(=N)N)cs3)OCCO4)ccc21 (stereo partly drawn) [Compound 110, (8S)—N-((4-carbamimidoylthiophen-2-yl)methyl)-7-((9-methyl-9H-fluorene-3-carbonyl)glycyl)-1,4-dioxa-7-azaspiro[4.4]nonane-8-carboxamide] | 
 | > 7.00 | C[C@@H](NC(=O)[C@@H]1C[C@@H](S(C)(=O)=O)CN1C(=O)CNC(=O)c1ccc2c(c1)-c1ccccc1S2(=O)=O)c1cc(C(=N)N)cs1 [Compound 342, (2S,4R)—N—((R)-1-(4-carbamimidoylthiophen-2-yl)ethyl)-1-((5,5-dioxidodibenzo[b,d]thiophene-2-carbonyl)glycyl)-4-(methylsulfonyl) pyrrolidine-2-carboxamide] | 
> 7.00 |  | C[C@@H](NC(=O)[C@@H]1CC2(CN1C(=O)CNC(=O)c1ccc(-c3ccc(F)cc3Cl)cc1)OCCO2)c1cc(C(=N)N)cs1 [Compound 176, (S)—N—((R)-1-(4-carbamimidoylthiophen-2-yl)ethyl)-7-((2′-chloro-4′-fluoro-[1,1′-biphenyl]-4-carbonyl)glycyl)-1,4-dioxa-7-azaspiro[4.4]nonane-8-carboxamide] | 
< 6.00 |  | C[C@@H](NC(=O)[C@@H]1CC2(CN1C(=O)CNC(=O)c1ccc3c(c1)-c1ccccc1C3(F)F)OCCO2)c1cc(-c2cncnc2)cs1 [Compound 91, (S)-7-((9,9-difluoro-9H-fluorene-3-carbonyl)glycyl)-N—((R)-1-(4-(pyrimidin-5-yl)thiophen-2-yl)ethyl)-1,4-dioxa-7-azaspiro[4.4]nonane-8-carboxamide] | 
 | > 7.00 | Cc1c2ccccc2cc2cc(C(=O)NCC(=O)N3CC4(C[C@H]3C(=O)N[C@H](C)c3cc(C(=N)N)cs3)OCCO4)ccc12 [Compound 325, (S)—N—((R)-1-(4-carbamimidoylthiophen-2-yl)ethyl)-7-((10-methylanthracene-2-carbonyl)glycyl)-1,4-dioxa-7-azaspiro[4.4]nonane-8-carboxamide] | 
> 7.00 |  | C[C@@H](NC(=O)[C@@H]1C[C@](F)(CN)CN1C(=O)CNC(=O)c1ccc2c(c1)-c1ccccc1C2(F)F)c1cc(C(=N)N)cs1 [Compound 35, (2S,4S)-4-(aminomethyl)-N—((R)-1-(4-carbamimidoylthiophen-2-yl)ethyl)-1-((9,9-difluoro-9H-fluorene-3-carbonyl)glycyl)-4-fluoropyrrolidine-2-carboxamide] | 
 | > 7.00 | Cc1ccc(-c2ccc(C(=O)NCC(=O)N3CC4(C[C@H]3C(=O)NCc3cc(C(=N)N)cs3)OCCO4)cc2)c(C)c1 [Compound 257, (S)—N-((4-carbamimidoylthiophen-2-yl)methyl)-7-((2′,4′-dimethyl-[1,1′-biphenyl]-4-carbonyl)glycyl)-1,4-dioxa-7-azaspiro[4.4]nonane-8-carboxamide] | 
 | > 7.00 | C[C@@H](NC(=O)[C@@H]1C[C@](F)(Cn2ccnn2)CN1C(=O)CNC(=O)c1ccc2c(c1)-c1ccccc1C2(F)F)c1cc(C(=N)N)cs1 [Compound 260, (2S,4R)-4-((1H-1,2,3-triazol-1-yl)methyl)-N—((R)-1-(4-carbamimidoylthiophen-2-yl)ethyl)-1-((9,9-difluoro-9H-fluorene-3-carbonyl)glycyl)-4-fluoropyrrolidine-2-carboxamide] | 
> 7.00 |  | COC(=O)/N=C(/N)c1csc([C@@H](C)NC(=O)[C@@H]2CC3(CN2C(=O)CNC(=O)c2ccc4c(c2)-c2ccccc2C4(F)F)OCCO3)c1 [Compound 148, methyl ((E)-amino(5-((R)-1-((S)-7-((9,9-difluoro-9H-fluorene-3-carbonyl)glycyl)-1,4-dioxa-7-azaspiro[4.4]nonane-8-carboxamido)ethyl)thiophen-3-yl)methylene)carbamate] | 
> 7.00 |  | C[C@@H](NC(=O)[C@@H]1C[C@@H](OC(F)F)CN1C(=O)CNC(=O)c1ccc(Oc2ccc(Cl)cc2)cc1)c1cc(C(=N)N)cs1 [Compound 43, (2S,4R)—N—((R)-1-(4-carbamimidoylthiophen-2-yl)ethyl)-1-((4-(4-chlorophenoxy)benzoyl)glycyl)-4-(difluoromethoxy)pyrrolidine-2-carboxamide] | 
 | > 7.00 | C[C@@H](NC(=O)[C@@H]1C[C@](F)(CF)CN1C(=O)CNC(=O)c1ccc2sc3ccccc3c2c1)c1cc(C(=N)N)cs1 [Compound 354, (2S,4R)—N—((R)-1-(4-carbamimidoylthiophen-2-yl)ethyl)-1-((dibenzo[b,d]thiophene-2-carbonyl)glycyl)-4-fluoro-4-(fluoromethyl)pyrrolidine-2-carboxamide] | 
 | > 7.00 | C[C@@H](NC(=O)[C@@H]1C[C@@H](C(F)(F)F)CN1C(=O)CNC(=O)c1ccc2c(c1)-c1ccccc1C2(F)F)c1cc(C(=N)N)cs1 [Compound 324, (2S,4R)—N—((R)-1-(4-carbamimidoylthiophen-2-yl)ethyl)-1-((9,9-difluoro-9H-fluorene-3-carbonyl)glycyl)-4-(trifluoromethyl)pyrrolidine-2-carboxamide] | 
> 7.00 |  | Cc1ccc(Oc2ccc(C(=O)NCC(=O)N3CC4(C[C@H]3C(=O)N[C@H](C)c3cc(C(=N)N)cs3)OCCO4)cc2)cc1 [Compound 22, (S)—N—((R)-1-(4-carbamimidoylthiophen-2-yl)ethyl)-7-((4-(p-tolyloxy)benzoyl)glycyl)-1,4-dioxa-7-azaspiro[4.4]nonane-8-carboxamide] | 

Structure (SMILES) | pIC50 [1] | pIC50 [2] | also measured
COc1ccc(-c2ccc(C(=O)NCC(=O)N3CC4(C[C@H]3C(=O)NCc3cc(C(=N)N)cs3)OCCO4)cc2)cc1 [Compound 217, (S)—N-((4-carbamimidoylthiophen-2-yl)methyl)-7-((4′-methoxy-[1,1′-biphenyl]-4-carbonyl)glycyl)-1,4-dioxa-7-azaspiro[4.4]nonane-8-carboxamide] |  | > 7.00 | 
